Test results published in patent US8163779B2, “Glucokinase activators” (Takeda San Diego, Inc., priority 2006, dated 2012).
Counter-ions that a name gives are not always drawn.

These compounds were tested against T1, glucokinase (GK) (Homo sapiens, UniProt P35557) (assay: enzymatic glucokinase activity assay (ATP consumption, KinaseGlo luminescence)). Settings: recombinant GK residues 12-465; 5 μM ATP, 5 mM Glucose; Kact = concentration that displays 50% of the maximal increase in GK activity; read-out: pKact.
T1 construct: I.D. No. 1 corresponds to residues 12-465 of glucokinase; made in house; host or cells: E. coli DH10b-T1r
T1 sequence (P35557 with tags, fused parts or gaps isoform P35557-2): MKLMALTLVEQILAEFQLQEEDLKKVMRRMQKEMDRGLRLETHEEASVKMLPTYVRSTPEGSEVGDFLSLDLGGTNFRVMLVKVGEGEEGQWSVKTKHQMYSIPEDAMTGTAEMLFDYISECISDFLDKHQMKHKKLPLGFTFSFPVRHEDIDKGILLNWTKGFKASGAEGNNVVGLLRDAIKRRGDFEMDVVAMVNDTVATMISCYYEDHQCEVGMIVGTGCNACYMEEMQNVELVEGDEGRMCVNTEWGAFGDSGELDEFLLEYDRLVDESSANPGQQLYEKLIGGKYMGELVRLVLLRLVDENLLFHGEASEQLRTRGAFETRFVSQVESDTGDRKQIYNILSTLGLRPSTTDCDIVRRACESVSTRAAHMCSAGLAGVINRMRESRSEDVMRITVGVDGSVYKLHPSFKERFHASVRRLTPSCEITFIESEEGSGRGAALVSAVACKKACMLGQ
Type: biochemical
Summary of the method: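 Recombinant human glucokinase expressed in E. coli was run in 25 mM Hepes pH 7.2 with 10 mM MgCl2, 1 mM DTT, 5 μM ATP, 5 mM glucose and 2% DMSO for 60 min at room temperature. Remaining ATP was read by KinaseGlo luminescence; pKact came from non-linear curve fits.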

| EC50 [µM] | Compound |
| --- | --- |
| > 15.8 | Cc1cc(S(=O)(=O)c2cccc(Cl)c2)cc(=O)n1[C@H](CC1CCOCC1)C(=O)Nc1ncc(F)s1 [Example 169, (R)-2-(4-(3-chlorophenylsulfonyl)-6-methyl-2-oxopyridin-1(2H)-yl)-N-(5-fluorothiazol-2-yl)-3-(tetrahydro-2H-pyran-4-yl)propanamide] |
| > 15.8 | Cc1cc(S(=O)(=O)C2CCCC2)cc(=O)n1[C@H](CC1CCOCC1)C(=O)Nc1ccc(F)cn1 [Example 164, (R)-2-(4-(cyclopentylsulfonyl)-6-methyl-2-oxopyridin-1(2H)-yl)-N-(5-fluoropyridin-2-yl)-3-(tetrahydro-2H-pyran-4-yl)propanamide] |
| > 15.8 | O=C(Nc1ncc(Cl)s1)[C@@H](CC1CCOCC1)n1cc(Cl)c(S(=O)(=O)C2CC2)cc1=O [Example 195, (R)-2-(5-chloro-4-(cyclopropylsulfonyl)-2-oxopyridin-1(2H)-yl)-N-(5-chlorothiazol-2-yl)-3-(tetrahydro-2H-pyran-4-yl)propanamide] |
| > 15.8 | O=C(Nc1ncc(F)s1)[C@@H](CC1CCOCC1)n1cc(Cl)c(S(=O)(=O)C2CC2)cc1=O [Example 197, (R)-2-(5-chloro-4-(cyclopropylsulfonyl)-2-oxopyridin-1(2H)-yl)-N-(5-fluorothiazol-2-yl)-3-(tetrahydro-2H-pyran-4-yl)propanamide] |
| 1.58 to 15.8 | COc1ccc2nc(NC(=O)[C@@H](CC3CCCCC3)n3ccc(S(=O)(=O)C4CC4)cc3=O)sc2n1 [Example 75, (R)-3-cyclohexyl-2-(4-(cyclopropylsulfonyl)-2-oxopyridin-1(2H)-yl)-N-(5-methoxythiazolo[5,4-b]pyridin-2-yl)propanamide] |
| < 1.58 | CN(C)c1ccc2nc(NC(=O)C(CC3CCOCC3)n3ccc(S(=O)(=O)C4CC4)cc3=O)sc2n1 (centres unmarked) [Example 128, 2-(4-(cyclopropylsulfonyl)-2-oxopyridin-1(2H)-yl)-N-(5-(dimethylamino)thiazolo[5,4-b]pyridin-2-yl)-3-(tetrahydro-2H-pyran-4-yl)propanamide] |
| < 1.58 | COc1ccc2nc(NC(=O)C(CC3CCCCC3)n3ccc(S(=O)(=O)C4CC4)cc3=O)sc2n1 (centres unmarked) [Example 68, 3-cyclohexyl-2-(4-(cyclopropylsulfonyl)-2-oxopyridin-1(2H)-yl)-N-(5-methoxythiazolo[5,4-b]pyridin-2-yl)propanamide] |
| > 15.8 | Cc1cc(-c2csc3ccccc23)cc(=O)n1[C@@H](CC1CCCCC1)C(=O)Nc1nccs1 [Example 107, (S)-2-(4-(benzo[b]thiophen-3-yl)-6-methyl-2-oxopyridin-1(2H)-yl)-3-cyclohexyl-N-(thiazol-2-yl)propanamide] |
| 1.58 to 15.8 | Cc1cc(S(=O)(=O)C2CCOCC2)cc(=O)n1[C@@H](CC1CCCC1)C(=O)Nc1ncc(F)s1 [Example 193, (S)-3-cyclopentyl-N-(5-fluorothiazol-2-yl)-2-(6-methyl-2-oxo-4-(tetrahydro-2H-pyran-4-ylsulfonyl)pyridin-1(2H)-yl)propanamide] |
| 1.58 to 15.8 | Cc1cc(S(=O)(=O)c2cccc(F)c2)cc(=O)n1C(CC1CCOCC1)C(=O)Nc1ncc(F)s1 (centres unmarked) [Example 159, 2-(4-(3-fluorophenylsulfonyl)-6-methyl-2-oxopyridin-1(2H)-yl)-N-(5-fluorothiazol-2-yl)-3-(tetrahydro-2H-pyran-4-yl)propanamide] |
| 1.58 to 15.8 | Cc1cc(-c2ncco2)cc(=O)n1C(CC1CCCCC1)C(=O)Nc1ncc(Cl)s1 (centres unmarked) [Example 143, N-(5-chlorothiazol-2-yl)-3-cyclohexyl-2-(6-methyl-4-(oxazol-2-yl)-2-oxopyridin-1(2H)-yl)propanamide] |
| 1.58 to 15.8 | O=C(Nc1ncc(Cl)s1)C(CC1CCCCC1)n1ccc(C(=O)N2CCCC2)cc1=O (centres unmarked) [Example 129, N-(5-chlorothiazol-2-yl)-3-cyclohexyl-2-(2-oxo-4-(pyrrolidine-1-carbonyl)pyridin-1(2H)-yl)propanamide] |
| > 15.8 | Cc1cc(-c2cccc(Cl)c2)cc(=O)n1[C@@H](CC1CCCCC1)C(=O)Nc1nccs1 [Example 92, (S)-2-(4-(3-chlorophenyl)-6-methyl-2-oxopyridin-1(2H)-yl)-3-cyclohexyl-N-(thiazol-2-yl)propanamide] |
| > 15.8 | O=C(Nc1cnccn1)[C@@H](CC1CCOCC1)n1ccc(S(=O)(=O)C2CC2)cc1=O [Example 69, (R)-2-(4-(cyclopropylsulfonyl)-2-oxopyridin-1(2H)-yl)-N-(pyrazin-2-yl)-3-(tetrahydro-2H-pyran-4-yl)propanamide] |
| > 15.8 | CCS(=O)(=O)c1ccc(-c2cc(C)n([C@@H](CC3CCCCC3)C(=O)Nc3nccs3)c(=O)c2)cc1 [Example 102, (S)-3-cyclohexyl-2-(4-(4-(ethylsulfonyl)phenyl)-6-methyl-2-oxopyridin-1(2H)-yl)-N-(thiazol-2-yl)propanamide] |

The remaining lines, values behind:

| Compound | EC50 [µM] |
| --- | --- |
| Cc1cc(S(C)(=O)=O)cc(=O)n1C(CC1CCOCC1)C(=O)Nc1nccs1 (centres unmarked) [Example 7, 2-(6-methyl-4-(methylsulfonyl)-2-oxopyridin-1(2H)-yl)-3-(tetrahydro-2H-pyran-4-yl)-N-(thiazol-2-yl)propanamide trifluoroacetic acid salt] | > 15.8 |
| COc1ccc2nc(NC(=O)[C@@H](CC3CCOCC3)n3c(C)cc(S(=O)(=O)c4ccoc4C)cc3=O)sc2n1 [Example 63, (R)-N-(5-methoxythiazolo[5,4-b]pyridin-2-yl)-2-(6-methyl-4-(2-methylfuran-3-ylsulfonyl)-2-oxopyridin-1(2H)-yl)-3-(tetrahydro-2H-pyran-4-yl)propanamide] | > 15.8 |
| COc1cc(C)n(C(CC2CCCCC2)C(=O)Nc2nccs2)c(=O)c1 (centres unmarked) [Example 2, 3-cyclohexyl-2-(4-methoxy-6-methyl-2-oxopyridin-1(2H)-yl)-N-(thiazol-2-yl)propanamide trifluoroacetic acid salt] | > 15.8 |
| CS(=O)(=O)c1ccn(C(Cc2cc(F)ccc2Cl)C(=O)Nc2ncc(Cl)s2)c(=O)c1 (centres unmarked) [Example 9, 3-(2-chloro-5-fluorophenyl)-N-(5-chlorothiazol-2-yl)-2-(4-(methylsulfonyl)-2-oxopyridin-1(2H)-yl)propanamide] | > 15.8 |
| Cc1cc(S(=O)(=O)C2CCCC2)cc(=O)n1C(Cc1ccco1)C(=O)Nc1nccs1 (centres unmarked) [Example 21, 2-(4-(cyclopentylsulfonyl)-6-methyl-2-oxopyridin-1(2H)-yl)-3-(furan-2-yl)-N-(thiazol-2-yl)propanamide] | > 15.8 |
| Cc1cc(Br)cc(=O)n1[C@@H](CC1CCCCC1)C(=O)Nc1nccs1 [Example 61, (S)-2-(4-bromo-6-methyl-2-oxopyridin-1(2H)-yl)-3-cyclohexyl-N-(thiazol-2-yl)propanamide] | > 15.8 |
| Cc1cc(S(=O)(=O)C2CCCC2)cc(=O)n1[C@H](CC1CCOCC1)C(=O)Nc1ncc(Cl)s1 [Example 37, (R)-N-(5-chlorothiazol-2-yl)-2-(4-(cyclopentylsulfonyl)-6-methyl-2-oxopyridin-1(2H)-yl)-3-(tetrahydro-2H-pyran-4-yl)propanamide] | 1.58 to 15.8 |
| COc1cccc(CC(C(=O)Nc2nccs2)n2c(C)cc(S(=O)(=O)C3CCCC3)cc2=O)c1 (centres unmarked) [Example 20, 2-(4-(cyclopentylsulfonyl)-6-methyl-2-oxopyridin-1(2H)-yl)-3-(3-methoxyphenyl)-N-(thiazol-2-yl)propanamide] | > 15.8 |
| Cc1cc(S(=O)(=O)C2CCCC2)cc(=O)n1C(CC1CC1)C(=O)Nc1nccs1 (centres unmarked) [Example 12, 2-(4-(cyclopentylsulfonyl)-6-methyl-2-oxopyridin-1(2H)-yl)-3-cyclopropyl-N-(thiazol-2-yl)propanamide] | 1.58 to 15.8 |
| COc1ccc2nc(NC(=O)[C@@H](CC3CCOCC3)n3ccc(S(=O)(=O)C4CCCC4)cc3=O)sc2n1 [Example 58, (R)-2-(4-(cyclopentylsulfonyl)-2-oxopyridin-1(2H)-yl)-N-(5-methoxythiazolo[5,4-b]pyridin-2-yl)-3-(tetrahydro-2H-pyran-4-yl)propanamide] | > 15.8 |
| Cc1cc(S(=O)(=O)C2CCCC2)cc(=O)n1C(CC1CCCCC1)C(=O)Nc1nccs1 (centres unmarked) [Example 5, 3-cyclohexyl-2-(4-(cyclopentylsulfonyl)-6-methyl-2-oxopyridin-1(2H)-yl)-N-(thiazol-2-yl)propanamide trifluoroacetic acid salt] | < 1.58 |
| Cc1occc1S(=O)(=O)c1cc(C)n(C(CC2CCCCC2)C(=O)Nc2ncc(Cl)s2)c(=O)c1 (centres unmarked) [Example 54, N-(5-chlorothiazol-2-yl)-3-cyclohexyl-2-(6-methyl-4-(2-methylfuran-3-ylsulfonyl)-2-oxopyridin-1(2H)-yl)propanamide] | < 1.58 |
| O=C(Nc1ncc(Cl)s1)[C@@H](CC1CCOCC1)n1ccc(S(=O)(=O)C2CCCC2)cc1=O [Example 31, (R)-N-(5-chlorothiazol-2-yl)-2-(4-(cyclopentylsulfonyl)-2-oxopyridin-1(2H)-yl)-3-(tetrahydro-2H-pyran-4-yl)propanamide] | > 15.8 |
| Cc1cc(S(=O)(=O)C2CCCC2)cc(=O)n1C(CC1CCCCC1)C(=O)Nc1ccc(C(N)=O)cn1 (centres unmarked) [Example 6, 6-(3-cyclohexyl-2-(4-(cyclopentylsulfonyl)-6-methyl-2-oxopyridin-1(2H)-yl)propanamido)nicotinamide trifluoroacetic acid salt] | < 1.58 |
